# Source: patent publication US8703805B2 (Exelixis Patent Company LLC, priority 2005, dated 2014)
# Test system: LXRα and/or LXRβ
# Test: LXR/LXRE co-transfection assay (luciferase reporter, CV-1 cells)
# Format: cell-based, human
# Conditions: IC50 or EC50 for LXR (LXRα and/or LXRβ, not distinguished), tested as described in Example 109, CV-1 cells
# Excerpt: To measure the ability of compounds to activate or inhibit the transcriptional activity of LXR in a cell based assay, the co-transfection assay was used. It has been shown that LXR functions as a heterodimer with RXR. For the co-transfection assay; expression plasmids for LXR and RXR are introduced via transient transfection into mammalian cells along with a luciferase reporter plasmid that contains one copy of a DNA sequence that is bound by LXR-RXR heterodimers (LXRE; Willy, P. ad. 1995). Treatment of transfected cells with an LXR agonist increases the transcriptional activity of LXR, which is measured by an increase in luciferase activity.
# CV-1 African Green Monkey Kidney Cells Co-transfection expression plasmids, comprising full-length LXRα (pCMX-h LXRα, LXRβ (pCMX-hLXRβ), or RXRα (pCMX-RXR), reporter plasmid (LXREx1-Tk-Luciferase), and control (pCMX-Galactosidase expression vector) (Willey et al. Genes & Development 91033-1045 (1995)). Transfection reagent such as FuGENE6 (Roche). 1× Cell lysis buffer (1% Triton X 100 (IT Baker X200-07), 10% Glycerol (JT Baker M778-07), 5 mM Ditriotreitol (Quantum Bioprobe DTT03; add fresh before lysing), 1 mM EGTA (Ethylene Glycol-bis(B-Amino ethyl ether)-N,N,N′,N′-Tetracetic Acid) (Sigma E-4378), 25 mM Tricine (ICN 807420) pH 7.8) 1× Luciferase assay buffer (pH at 7.8) (0.73 mM ATP, 22.3 mM Tricine, 0.11 mM EDTA, 33.3 mM DTT) 1× Luciferrin/CoA (11 mM Luciferin, 3.05 mM Coenzyme A, 10 mM HEPES) Preparation of Screening Reagents
# CV-1 cells were prepared 24 hours prior to the experiment by plating them into T-175 flasks or 500 cm^2 dishes in order to achieve 70-80% confluency on the day of the transfection. The number of cells to be transfected was determined by the number of plates to be screened. each 384 well plate requires 1.92×10^6 cells or 5000 cells per well. DNA Transfection Reagent was prepared by mixing the required plasmid DNAs with a cationic lipid transfection reagent FuGENE6 (Roche) by following the instructions provided with the reagents. Optimal DNA amounts were determined empirically per cell line and size of vessel to be transfected. 10-12 mL of media was added to the DNA Transfection Reagent and this mixture was added to the cells after aspirating media from the T175 cm^2 flask. Cells were then incubated at least 5 hours at 37° C. to prepare screening cells.
# Luciferase assay reagent was prepared by combining before use (per 10 mL): […], 0.54 mL of 1× Luciferrin/CoA; 0.54 mL of 0.2 M Magnesium sulfate
# Assay plates were prepared by dispensing 5 μL of compound per well of a 384 well plate to achieve final compound concentration of 10 μM and no more than 1% DMSO. Media was removed from the screening cells, the cells trypsinized, harvested cells by centrifugation, counted, and plated at a density of approximately 5000 cells per well in the 384 well assay plate prepared above in a volume of about 45 μL. Assay plates containing both compounds and screening cells (50 μL in total volume) were incubated for 20 hours at 37° C.
# After incubation with compounds, media was removed from the cells and lysis buffer (30 μL/well) added. After 30 minutes at ambient temperature, luciferase assay buffer (30 μL/well) was added and the assay plates read on a luminometer (PE Biosystems Northstar reader with on-board injectors, or equivalent). Plates were read immediately after addition of luciferase assay buffer.
# The LXR/LXRE co-transfection assay can be used to establish the EC50/IC50 values for potency and percent activity or inhibition for efficacy. Efficacy defines the activity of a compound relative to a high control ((N-(3-((4-fluorophenyl)-(naphthalene-2-sulfonyl)amino)propyl)-2,2-dimethylpropionamide)) or a low control (DMSO/vehicle). The dose response curves are generated from an 8 point curve with concentrations differing by ½ LOG units. each point represents the average of 4 wells of data from a 384 well plate. […]
row,SMILES,EC50 [nM]
1,"CCc1ccccc1-n1nc(C(C)(C)O)c(Br)c1-c1ccc(-c2cccc(S(C)(=O)=O)c2)s1 [Example 1358, 2-[4-bromo-1-(2-ethylphenyl)-5-{5-[3-(methylsulfonyl)phenyl]-2-thienyl}-1H-pyrazol-3-yl]propan-2-ol]",< 1000
2,"COC(=O)c1cccc(-n2nc(C(F)(F)F)cc2-c2ccc(-c3cccc(S(C)(=O)=O)c3)s2)c1 [Example 1186, methyl 3-[5-{5-[3-(methylsulfonyl)phenyl]-2-thienyl}-3-(trifluoromethyl)-1H-pyrazol-1-yl]benzoate]",< 1000
3,"CC(C)(O)c1nn(-c2cnccc2C(F)(F)F)c(-c2ccc(-c3cccc(S(C)(=O)=O)c3)cc2)c1Cl [Example 109, 2-(4-chloro-5-(3′-(methylsulfonyl)biphenyl-4-yl)-1-(4-(trifluoromethyl)pyridin-3-yl)-1H-pyrazol-3-yl)propan-2-ol]",1000 to 10000
4,"CO/N=C(\C)c1cc(-c2ccc(-c3cccc(S(C)(=O)=O)c3)s2)n(-c2ccccc2Cl)n1 [Example 1177, (1E)-1-[1-(2-chlorophenyl)-5-{5-[3-(methylsulfonyl)phenyl]-2-thienyl}-1H-pyrazol-3-yl]ethanone O-methyloxime]",< 1000
5,"CC(C)(O)c1cc(-c2ccc(-c3cccc(S(C)(=O)=O)c3)s2)n(-c2ccccc2F)n1 [Example 1261, 2-[1-(2-fluorophenyl)-5-{5-[3-(methylsulfonyl)phenyl]-2-thienyl}-1H-pyrazol-3-yl]propan-2-ol]",< 1000
6,"CC(C)(N)c1cc(-c2ccc(-c3cccc(S(C)(=O)=O)c3)s2)n(-c2ccccc2Cl)n1 [Example 1151, 2-[1-(2-chlorophenyl)-5-{5-[3-(methylsulfonyl)phenyl]-2-thienyl}-1H-pyrazol-3-yl]propan-2-amine]",1000 to 10000
7,"CN(C)C1CCN(C(=O)c2cc(-c3ccc(-c4cccc(S(C)(=O)=O)c4)s3)n(-c3ccccc3Cl)n2)CC1 [Example 591, 1-{[1-(2-chlorophenyl)-5-{5-[3-(methylsulfonyl)phenyl]-2-thienyl}-1H-pyrazol-3-yl]carbonyl}-N,N-dimethylpiperidin-4-amine]",1000 to 10000
8,"CC(C)(O)c1cc(-c2ccc(-c3cccc(NS(=O)(=O)C(F)(F)F)c3)cc2)n(-c2ccccc2Cl)n1 [Example 1310, N-{4′-[1-(2-chlorophenyl)-3-(1-hydroxy-1-methylethyl)-1H-pyrazol-5-yl]biphenyl-3-yl}-1,1,1-trifluoromethanesulfonamide]",1000 to 10000
9,"Cc1cc(NCCN2CCCCC2)ccc1-c1cc(C(C)(C)O)nn1-c1c(Cl)cccc1Cl [Example 1405, 2-(1-(2,6-dichlorophenyl)-5-(2-methyl-4-(2-(piperidin-1-yl)ethylamino)phenyl)-1H-pyrazol-3-yl)propan-2-ol]",> 10000
10,CC(C)(O)c1ccccc1-n1nc(C(F)(F)F)cc1-c1ccc(-c2cccc(S(C)(=O)=O)c2)s1 [Example 1229],< 1000
11,"CC(C)(O)c1cc(-c2ccc(-c3ccc(C(F)(F)F)cc3Cl)cc2)n(-c2ccccc2Cl)n1 [Example 1288, 2-{1-(2-chlorophenyl)-5-[2′-chloro-4′-(trifluoromethyl)biphenyl-4-yl]-1H-pyrazol-3-yl}propan-2-ol]",1000 to 10000
12,"CS(=O)(=O)c1cccc(-c2ccc(-n3nc(C(O)(C(F)(F)F)C(F)(F)F)cc3-c3ccccc3Cl)cc2)c1 [Example 1225, 2-{5-(2-chlorophenyl)-1-[3′-(methylsulfonyl)biphenyl-4-yl]-1H-pyrazol-3-yl}-1,1,1,3,3,3-hexafluoropropan-2-ol]",< 1000
13,"CCN1CCC(CNC(=O)c2cc(-c3ccc(-c4cccc(S(C)(=O)=O)c4)s3)n(-c3ccccc3Cl)n2)C1 (stereo not shown) [Example 739, 1-(2-chlorophenyl)-N-[(1-ethylpyrrolidin-3-yl)methyl]-5-{5-[3-(methylsulfonyl)phenyl}-2-thienyl}-1H-pyrazole-3-carboxamide]",1000 to 10000
14,"CC(C)(O)c1cc(-c2ccccc2Cl)n(-c2ccc(-c3cccc(S(C)(=O)=O)c3)nc2)n1 [Example 1246, 2-[5-(2-chlorophenyl)-1-(6-[3-(methylsulfonyl)phenyl]pyridin-3-yl}-1H-pyrazol-3-yl]propan-2-ol]",1000 to 10000
15,"CS(=O)(=O)c1cccc(-c2ccc(-c3cc(C(O)(C(F)(F)F)C(F)(F)F)nn3-c3ccccc3Cl)s2)c1 [Example 1164, 2-[1-(2-chlorophenyl)-5-{5-[3-(methylsulfonyl)phenyl]-2-thienyl}-1H-pyrazol-3-yl]-1,1,1,3,3,3-hexafluoropropan-2-ol]",< 1000
16,"CC(C)(O)c1cc(-c2ccc(-c3ccc(S(C)(=O)=O)cc3)cc2)n(-c2ccccc2Cl)n1 [Example 1305, 2-{1-(2-chlorophenyl)-5-[4′-(methylsulfonyl)biphenyl-4-yl]-1H-pyrazol-3-yl}propan-2-ol]",1000 to 10000
17,"CC(C)(O)c1cc(-c2ccc(-c3cccc(S(C)(=O)=O)c3)s2)n(-c2cc(F)ccc2F)n1 [Example 1322, 2-[1-(2,5-difluorophenyl)-5-{5-[3-(methylsulfonyl)phenyl]-2-thienyl}-1H-pyrazol-3-yl]propan-2-ol]",1000 to 10000
18,"CS(=O)(=O)c1cccc(-c2ccc(-c3cc(C4(C#N)CC4)nn3-c3ccccc3Cl)s2)c1 [Example 1188, 1-[1-(2-chlorophenyl)-5-{5-[3-(methylsulfonyl)phenyl]-2-thienyl}-1H-pyrazol-3-yl]cyclopropanecarbonitrile]",< 1000
19,"CC(C)(O)c1cc(-c2ccc(-c3ccc4cc[nH]c4c3)cc2)n(-c2ccccc2Cl)n1 [Example 1282, 2-{1-(2-chlorophenyl)-5-[4-(1H-indol-6-yl)phenyl]-1H-pyrazol-3-yl}propan-2-ol]",1000 to 10000
20,"Cc1cc(-c2cccc(S(C)(=O)=O)c2)ccc1-c1cc(C(C)(C)O)nn1Cc1cccc(Cl)c1Cl [Example 1384, 2-(1-(2,3-dichlorobenzyl)-5-(3-methyl-3′-(methylsulfonyl)biphenyl-4-yl)-1H-pyrazol-3-yl)propan-2-ol]",< 1000
21,"CC(C)(O)c1cc(-c2ccc(-c3cccc(S(C)(=O)=O)c3)s2)n(-c2cc(Cl)ccc2F)n1 [Example 1336, 2-[1-(5-chloro-2-fluorophenyl)-5-{5-[3-(methylsulfonyl)phenyl]-2-thienyl}-1H-pyrazol-3-yl]propan-2-ol]",< 1000
22,"Cc1cccc(Cl)c1-n1nc(C(C)(C)O)cc1-c1ccc(-c2cccc(S(C)(=O)=O)c2)s1 [Example 1335, 2-[1-(2-chloro-6-methylphenyl)-5-{5-[3-(methylsulfonyl)phenyl]-2-thienyl}-1H-pyrazol-3-yl]propan-2-ol]",< 1000
23,"Cc1cc(-c2cccc(S(C)(=O)=O)c2)ccc1-c1c(Cl)c(C(C)(C)O)nn1-c1cccnc1C(F)(F)F [Example 1391, 2-(4-chloro-5-(3-methyl-3′-(methylsulfonyl)biphenyl-4-yl)-1-(2-(trifluoromethyl)pyridin-3-yl)-1H-pyrazol-3-yl)propan-2-ol]",< 1000
24,"CC(C)(O)c1nn(-c2ccccc2Cl)c(-c2ccc(-c3cccc(S(C)(=O)=O)c3)s2)c1F [Example 1319, 2-[1-(2-chlorophenyl)-4-fluoro-5-{5-[3-(methylsulfonyl)phenyl]-2-thienyl}-1H-pyrazol-3-yl]propan-2-ol]",< 1000
25,"Cc1cc(-c2cccc(S(C)(=O)=O)c2)ccc1-c1cc(C(C)(C)O)nn1-c1c(Cl)cccc1Cl [Example 147, 2-(1-(2,6-dichlorophenyl)-5-(3-methyl-3′-(methylsulfonyl)biphenyl-4-yl)-1H-pyrazol-3-yl)propan-2-ol]",< 1000
